From patent US6565892B2, “Synergistic fungicidal composition comprising a compound analogous to strobilurin” (Rhone-Poulenc Agrochimie, priority 1995, dated 2003)
In brackets after ≈: the same amount, converted by molar mass. Like-named read-outs stand apart in the source and are kept apart here.

System: Plasmopara viticola
Assay: In vivo test with respect to Plasmopara viticola (grape downy mildew) on Chardonnay vine cuttings, preventive treatment 72 hours before infection
Conditions: in Vitis vinifera, spray 72 h before infection, reading 7 days after infection, read-out: dose of A alone which it is necessary to apply for the destruction of 50% of the parasite
Method: A suspension comprising the compounds A and B in a liquid mixture composed of a surface-active agent (oleate of polyoxyethylenated derivative of sorbitan) and water is prepared.
The component B is fosetyl-Al; the A/B ratio is 0.05, 0.07 and 0.1 (B/A=20, 15 and 10).
Vine (Vitis vinifera) cuttings, variety Chardonnay, are grown in small pots. When these seedlings are 2 months old (8- to 10-leaf stage, height of 10 to 15 cm), they are treated by spraying with the above suspension.
After 72 hours, each seedling is infected by spraying with an aqueous suspension of spores of Plasmopara viticola, which suspension is obtained from sporulated leaves infected 7 days previously. These spores are suspended at a concentration of 100,000 units per cm^3 of inoculum. Infection is carried out by spraying the inoculum at the undersurface of the leaves.
The infected seedlings are then incubated for seven days at 20-22° C. at 90-100% relative humidity under natural light.
Reading is carried out 7 days after infection, in comparison with the control seedlings.
The results obtained are reported in the form of points, corresponding to 50% destruction of the parasite, and are plotted on a Tammes isobole diagram which contains, on the abscissa, the doses of A expressed in ppm (mg/l) and, on the ordinate, the doses of B, also in ppm (mg/l). […]

SMILES | EC50 (A = ICIA5504 alone) [µg/mL] | EC50 (A = SSF-129 alone) [µg/mL]
CO/C=C(/C(=O)OC)c1ccccc1Oc1cc(Oc2ccccc2C#N)ncn1 [ICIA5504, methyl (E)-2-{2-[6-(2-cyanophenoxy)pyrimidin-4-yloxy]phenyl}-3-methoxyacrylate] | 1.5 (≈ 3.72 µM) | –
CNC(=O)/C(=N/OC)c1ccccc1COc1cc(C)ccc1C [SSF-129, N-methyl-(E)-methoxyimino[2-(2,5-dimethylphenoxymethyl)phenyl]acetamide] | – | 4.6 (≈ 14.1 µM)
